For series [1], the system named is H2052 cells. The experiment in a line: Specificity of endocytosis inhibitors (Transferrin / Dextran uptake, flow cytometry). The following applies: Transferrin and Dextran (70 kD) markers, 1 h. It counts as cell-based, human. The protocol: FIGS. 10A-10D. Determining the effect of chemical inhibitors on endocytic uptake of Transferrin and Dextran (70 kD), the markers for clathrin-dependent and macropinocytic pathways, in H2052 human mesothelioma cells. Flow cytometric histograms of cells treated with (FIG. 10A) Rhodamine-labeled Transferrin for 1 h in presence or absence of Cytochalasin D, Dynasore, EIPA and cells treated (FIG. 10B) with Rhodamine-labeled Transferrin for 1 h in presence or absence of Cytochalasin D, Dynasore, EIPA. Flow cytometric histograms of cells (FIG. 10C) treated with FITC-labeled Dextran and cells treated with FITC-labeled Dextran (FIG. 10D) for 1 h in presence or absence of Nystatin.
Flow cytometry. In vitro miRNA transfection efficiency of nanoparticles was determined using human mesothelioma cell H2052 (ATCC). For flow cytometry, 1.2×10^5 cells were seeded on 6 well plate 24 h before treatment and allowed to grow under normal culture conditions. FAM (6-carboxyfluorescein, 5′ end)-labeled scrambled miRNA (Thermo Fisher) was complexed with Peptide 1 in a 10:1 N/P ratio according to the protocol described above. Nanoparticles obtained were diluted with optiMEM (Thermo Fisher) to maintain a final miRNA concentration of 40 nM. Complexes of commercial transfection agents (In vivo jet PEI, Polyplus-transfection and DharmaFECT, Dharmacon) and equivalent amount of miRNA were prepared according to manufacturers' instruction. […] To determine the specificity of the inhibitors towards each endocytic pathway in H2052 cells, cellular internalization of Rhodamine or FITC-labeled Transferrin (marker for clathrin mediated uptake, Thermo Fisher) and Rhodamine or FITC-labeled Dextran (70 kD, marker for micropinocytosis, Thermo Fisher) in presence and absence of inhibitors were analyzed with flow cytometry. […] Median fluorescence intensity (MFI) for gated live cell population was determined for cells treated with each inhibitor and normalized with respect to the sample without inhibitor treatment.
On the technique in general: A flow cytometer gives signals particle by particle.

The nature of series [2]: Hydrogel composite formation with different hydrogelating peptides. Type of series: physicochemical. Particulars: 24 h post-assembly, irrespective of nanoparticle loaded. The protocol:
Preparation and characterization of hydrogel composites. Required amount of miRNA was diluted in water and mixed with an aqueous solution of Peptide 1 in a 10:1 N/P ratio to maintain a final volume of 25 μL. The suspension was incubated for 30 min at 37° C. with constant agitation and the resulting nanoparticles were mixed with 25 μL of chilled 2×HBS (50 mM HEPES 300 mM NaCl, pH 7.4). 50 μL of 1% (w/v) solution of a hydrogelating peptide (Peptides 1, 2, 3 and 4) was prepared in a chilled 25 mM HEPES (pH 7.4), mixed with an equal volume of nanoparticle suspension and incubated at 37° C. for overnight to afford 0.5 wt % hydrogel composites. Gel composites containing 1% of hydrogelating peptide was also prepared similarly. For Transmission Electron Microscopy of gel composites, ˜4 μL of the sample was deposited onto 200 mesh carbon coated copper grids and allowed to adhere for 30 seconds. The excess sample was removed with a filter paper. Uranyl acetate (5 μL) was used to stain the grids for 30 seconds. Grids were dried for 2-3 minutes. Images were acquired using a Tecnai T12 transmission electron microscope.

Series [3] can be described thus: Circular dichroism spectroscopy of Peptide 1 with miRNA / heparin. Type of series: physicochemical. On the procedure:
Circular Dichroism Spectroscopy. Secondary structure of Peptide 1 in presence or absence of added miRNA was determined using Circular Dichroism (CD) spectroscopy. For recording CD spectra in water, 150 μL from the aqueous solutions of Peptide 1 was mixed with 150 μL of an aqueous solution of scrambled miRNA to maintain peptide vs miRNA N/P ratios at 10:1, 5:1, 2:1 and 1:1. These N/P ratios correspond to peptide vs miRNA mole ratios of 50:1, 25:1, 10:[…], respectively. Nanoparticles and soluble peptides of 300 μL total volume were equilibrated for 30 min at 37° C. with agitation. Final concentration of miRNA was maintained at 5 μM. Samples were transferred into a quartz cell of path-length 1 mm and data collection were initiated immediately. Ellipticity was measured over a wavelength range of 190-260 nm at 37° C., using 1 nm step size and a set of 3-5 scans. Raw data was corrected by subtracting the absorbance of samples from those of miRNA and converted to mean residue ellipticity using the equation: [θ]=θobs/(10*l*c*r) where θobs is the measured ellipticity (mdeg), l is the path length (0.1 cm), c is the concentration of peptide (determined from UV absorbance at 220 nm) and r corresponds to the number of amino acid residues in the peptide. […]
In general terms: Circular dichroism is widely used to follow secondary structure.

For series [4], the system named is H2052 cells. The series can be described thus: LDH cytotoxicity assay. Type of series: cell-based, human. The following applies: 4 h post-incubation. On the procedure:
LDH assay kit (Roche) was used to determine any possible cytotoxicity of Peptide 1/miRNA nanoparticles and soluble Peptide 1. Cell supernatant was taken out after 4 h of treatment and a reaction mixture containing diaphorase/NAD+/iodotetrazolium chloride/sodium lactate was added following manufacturer's instructions to detect any released LDH (Lactate Dehydrogenase). Triton X-100 at a final concentration was used as a high control for maximal releasable LDH, while untreated cells were taken as low control for spontaneous LDH release. Absorbance was measured at 490 nm after 5 minutes of incubation at 37° C. Cytotoxicity was calculated using the equation: (Absorbance^treated−Absorbance^low control/Absorbance^high control−Absorbance^low control)×100.

Series [5] relates to FAM-labeled scrambled miRNA. The experiment in a line: Fluorescence-based binding assay between peptides and miRNA. The following applies: 30 nM FAM-miRNA; peptide vs miRNA molar ratio 0.3125 to 1000; complexed in water, diluted with 25 mM HEPES pH 7.4. The protocol: Binding interactions among peptides and miRNA were studied using a fluorescence measurement. Scrambled miRNA (sequence mismatched with all possible mRNAs in human) labeled with FAM (6-carboxyfluorescein, 5′ end) was mixed with peptides having peptide vs miRNA molar ratio ranging from 0.3125 to 1000. Complexation was first performed in water, followed by dilution of the complex with HEPES (25 mM HEPES, pH 7.4) to keep pH of the suspension unaltered across all peptide concentrations. With increasing mole ratio, FAM fluorescence gradually gets quenched resulting from peptide-mediated condensation. […] Concentrations of Peptide 1 to induce maximum quenching were close to a molar ratio of 50:1 between Peptide 1 and miRNA which corresponds to an N/P ratio (charge ratio) of 10:1. Accordingly, a ratio of 10:1 as the N/P ratio was used for further assessment.
Fluorescence-based binding assay was used to determine interaction between peptides and miRNA. […] FAM fluorophore on miRNA was excited at 490 nm and emission at 520 nm was recorded using a microplate reader (Tecan Infinite 200) with a band-pass filter of 20 nm. A PTI fluorimeter was used to record fluorescence spectrum for Peptide 1/miRNA nanoparticles at N/P ratio 10:1 (molar ratio of 50:1, Peptide 1 vs miRNA) in the emission range of 500-700 nm.

On to `C=C1[C@@H](C)[C@H]2[C@H](Cc3ccccc3)NC(=O)[C@]23[C@H](OC(C)=O)/C=C/[C@@](C)(O)C(=O)[C@@H](C)C/C=C/[C@H]3[C@@H]1O` [Cytochalasin D], for which the Endocytic pathway inhibited result in the series with H2052 cells [1] is given as “inhibitors for clathrin-dependent pathways”.

Regarding `O=C(N/N=C/c1ccc(O)c(O)c1)c1cc2ccccc2cc1O` [Dynasore], the Endocytic pathway inhibited entry in the series with H2052 cells [1] is on record as “inhibitors for clathrin-dependent pathways”. On the same count and under the same terms, as for `CCN(c1nc(N)c(C(=O)NC(=N)N)nc1Cl)C(C)C` [EIPA], the entry is “selective inhibitor of micropinocytosis”.

For VKVKVKVKV^DPPTKVKVKVKV-NH2 [Peptide 1], the “Formation of gel-like material when used as self-assembling peptide” value in series [2] was “does not form a gel-like material”. Moreover, the “Folding into a β-hairpin structure in the nanoparticles” value in series [3] (N/P ratio 10:1, water) is given as “not enough to induce any significant folding”. The “Heparin concentration at which evolution of β-sheet structure starts” value in series [3] (Peptide 1 complexed with miRNA at N/P 10:1, water, 37° C.) was determined as 50 µg/mL. Moreover, the “Cytotoxicity as compared to positive control Triton X-100” value with H2052 cells [4] came out at 20%. The “Extent of quenching of FAM fluorescence (peptide-mediated condensation of miRNA)” value in series [5] is given as “maximal”. On to VLTKVKTKV^DPPTKVEVKVLV-NH2 [Peptide 3], for which the “Extent of quenching of FAM fluorescence (peptide-mediated condensation of miRNA)” value in series [5] was “not able to promote significant condensation of miRNA”.
